{"source": "patent US10829458B2", "about": "(Araxes Pharma LLC, priority 2015, dated 2020)", "target": "T1, KRAS G12C 1-169, his-tagged protein, GDP-loaded (Homo sapiens, UniProt P01116, G12C)", "T1 construct": "KRAS G12C 1-169, his-tagged protein, GDP-loaded", "assay": "Biochemical assay: covalent modification of KRAS G12C measured by mass spectrometry (RapidFire/TOF or Q-Exactive)", "settings": "covalent binding to KRAS G12C", "description": "Test compounds were prepared as 10 mM stock solutions in DMSO (Fisher cat #BP-231-100). KRAS G12C 1-169, his-tagged protein, GDP-loaded was diluted to 2 μm in buffer (20 mM Hepes, 150 mM NaCl, 1 mM MgCl2). Compounds were tested for activity as follows:\nCompounds were diluted to 50× final test concentration in DMSO in 96-well storage plates. Compound stock solutions were vortexed before use and observed carefully for any sign of precipitation. Dilutions were as follow: • For 100 μM final compound concentration, compounds were diluted to 5000 μM (5 μl 10 mM compound stock+5 μl DMSO and mixed well by pipetting. • For 30 μM final compound concentration, compounds were diluted to 1500 μM (3 μl 10 mM compound stock+17p DMSO) and mixed well by pipetting. • For 10 μM final compound concentration, compounds were diluted to 500 μM (2 μl 10 mM compound stock+38p DMSO) and mixed well by pipetting. 49p of the stock protein solution was added to each well of a 96-well PCR plate (Fisher cat #1423027). 1 μl of the diluted 50× compounds were added to appropriate wells in the PCR plate using 12-channel pipettor. Reactions were mixed carefully and thoroughly by pipetting up/down with a 200·1 multi-channel pipettor. The plate was sealed well with aluminum plate seal, and stored in drawer at room temperature for 30 min, 2 hour or 24 hrs. 5·1 of 2% formic acid (Fisher cat #A117) in DI H2O was then added to each well followed by mixing with a pipette. The plate was then resealed with aluminum seal and stored on dry ice until analyzed as described below.\nThe above described assays were analyzed by mass spectrometry according to one of the following two procedures:\nThe MS instrument is set to positive polarity, 2 GHz resolution, and low mass (1700) mode and allowed to equilibrate for 30 minutes. The instrument is then calibrated, switched to acquisition mode and the appropriate method loaded.\nAfter another 30 minute equilibration time, a blank batch (i.e., buffer) is run to ensure equipment is operating properly. The samples are thawed at 37° C. for 10 minutes, briefly centrifuged, and transfer to the bench top. Wells A1 and H12 are spiked with 1 uL 500 uM internal standard peptide, and the plates centrifuged at 2000×g for 5 minutes. The method is then run and masses of each individual well recorded.\nThe masses (for which integration data is desired) for each well are pasted into the platemap and exported from the analysis. Masses for the internal standards are exported as well. The data at 50 ppm is extracted for the +19 charge state, and identity of well A1 is assigned using the internal standard spike and integrated. Peak data is exported as a TOF list and the above steps are repeated individually, for the +20, 21, 22, 23, 24, and 25 charge states.\nThe masses and peak intensities of KRAS G12C protein species were measured using a Dionex RSLCnano system (Thermo Scientific) connected to a Q Exactive Plus mass spectrometer (Thermo Scientific).\n[…] of sample was each loaded onto a Aeris™ 3.6 μm WIDEPORE C4 200 Å, LC Column 50×2.1 mm column maintained at 40° C. at a flow rate of 600 μl min^−1 with […] (0.1% formic acid in acetonitrile). The liquid chromatography conditions were 20% solvent B for 1 min, 20% to 60% solvent B for 1.5 min, 60% to 90% solvent for 0.5 min, 90% solvent B for 0.2 min, 90% to 20% solvent B for 0.2 min, and then equilibrated for 1.6 min before the following sample injection. The flow rate was maintained at 600 μl min^−1 throughout the sample analysis.\nThe mass spectrometer was operated in profile mode at a resolution of 17500, 5 microscans, using 50 msec max injection time and an AGC target of 1e6, and a full mass range from 800-1850 m/z was recorded. The HCD trapping gas was optimized for maximum sensitivity for intact proteins. […]"}
{"smiles": "C=CC(=O)N1CCN(c2nc(OCCc3ccccn3)nc3c(F)c(-c4c(O)cccc4F)c(Cl)cc23)CC1", "note": "(atropisomer, axis not shown) [Example I-102, (R)-1-(4-(6-chloro-8-fluoro-7-(2-fluoro-6-hydroxyphenyl)-2-(2-(pyridin-2-yl)ethoxy)quinazolin-4-yl)piperazin-1-yl) prop-2-en-1-one]", "values": [{"measurement": "Binding %", "setting": "compounds of structure (I)", "result": "+ (+ indicates binding activity up to 50%)"}]}
{"smiles": "C=CC(=O)N1CCN(c2nc(OCC(=O)N(C)C)nc3c(F)c(-c4c(C)ccc5[nH]ncc45)c(Cl)cc23)CC1", "note": "[Example I-4, 2-(4-(4-acryloylpiperazin-1-yl)-6-chloro-8-fluoro-7-(5-methyl-1H-indazol-4-yl)quinazolin-2-yloxy)-N,N-dimethyl-acetamide]", "values": [{"measurement": "Binding %", "setting": "compounds of structure (I)", "result": "++ (++ indicates binding activity from 50 to 90%)"}]}
{"smiles": "C=CC(=O)N1CCN(c2nc(NCCN3CC[C@@H](O)C3)nc3c(F)c(-c4c(O)cccc4F)c(Cl)cc23)CC1", "note": "[Example I-56, 1-(4-(6-chloro-8-fluoro-7-(2-fluoro-6-hydroxyphenyl)-2-(2-((R)-3-hydroxy-pyrrolidin-1-yl)ethylamino)quinazolin-4-yl)piperazin-1-yl) prop-2-en-1-one]", "values": [{"measurement": "Binding %", "setting": "compounds of structure (I)", "result": "+++ (+++ indicates binding activity greater than 90%)"}]}
{"smiles": "C=CC(=O)N1CCN(c2nc(SCCN3CCOCC3)nc3c(F)c(-c4c(O)cccc4F)c(Cl)cc23)CC1", "note": "[Example I-17, 1-(4-(6-chloro-8-fluoro-7-(2-fluoro-6-hydroxyphenyl)-2-(2-morpholino-ethylthio)quinazolin-4-yl)piperazin-1-yl)prop-2-en-1-one]", "values": [{"measurement": "Binding %", "setting": "compounds of structure (I)", "result": "++ (++ indicates binding activity from 50 to 90%)"}]}
{"smiles": "C=CC(=O)N1CCN(c2nc(OCCN3CCCC3=O)nc3c(F)c(-c4c(C)ccc5[nH]ncc45)c(Cl)cc23)CC1", "note": "[Example I-1, 1-(2-(4-(4-acryloylpiperazin-1-yl)-6-chloro-8-fluoro-7-(5-methyl-1H-indazol-4-yl)quinazolin-2-yloxy)ethyl) pyrrolidin-2-one]", "values": [{"measurement": "Binding %", "setting": "compounds of structure (I)", "result": "+++ (+++ indicates binding activity greater than 90%)"}]}
{"smiles": "C=CC(=O)N1[C@H](C)CN(c2ncnc3c(F)c(-c4c(O)cccc4F)c(Cl)cc23)C[C@@H]1C", "note": "(atropisomer, axis not shown) [III-6]", "values": [{"measurement": "Binding %", "setting": "compounds of structure (III)", "result": "+++ (+++ indicates binding activity greater than 90%)"}]}
{"smiles": "C=CC(=O)N1CCN(c2nc(OCCN(C)C)nc3c(F)c(-c4cc(O)cc5ccccc45)c(Cl)cc23)CC1", "note": "(atropisomer, axis not shown) [Example I-95, (S)-1-(4-(6-chloro-2-(2-(dimethylamino)ethoxy)-8-fluoro-7-(3-hydroxy-naphthalen-1-yl)quinazolin-4-yl)piperazin-1-yl)prop-2-en-1-one]", "values": [{"measurement": "Binding %", "setting": "compounds of structure (I)", "result": "+++ (+++ indicates binding activity greater than 90%)"}]}
{"smiles": "C=CC(=O)N1CCN(c2nc(OC3CCOCC3)nc3c(F)c(-c4c(O)cccc4F)c(Cl)cc23)CC1", "note": "[Example I-18, 1-(4-(6-chloro-8-fluoro-7-(2-fluoro-6-hydroxyphenyl)-2-(tetrahydro-2H-pyran-4-yloxy)quinazolin-4-yl)piperazin-1-yl)prop-2-en-1-one]", "values": [{"measurement": "Binding %", "setting": "compounds of structure (I)", "result": "+++ (+++ indicates binding activity greater than 90%)"}]}
{"smiles": "C=CC(=O)N1CCN(c2nc(OCc3cccc(C#N)n3)nc3c(F)c(-c4c(O)cccc4F)c(Cl)cc23)CC1", "note": "[Example I-122, 6-((4-(4-acryloyl-piperazin-1-yl)-6-chloro-8-fluoro-7-(2-fluoro-6-hydroxyphenyl)quinazolin-2-yloxy)methyl) picolinonitrile]", "values": [{"measurement": "Binding %", "setting": "compounds of structure (I)", "result": "+++ (+++ indicates binding activity greater than 90%)"}]}
{"smiles": "C=CC(=O)N1CCN(c2nc(OCCN3CCN(C4CC4)CC3)nc3c(F)c(-c4c(O)cccc4F)c(Cl)cc23)CC1", "note": "[Example I-168, 1-(4-(6-chloro-2-(2-(4-cyclopropyl-piperazin-1-yl)ethoxy)-8-fluoro-7-(2-fluoro-6-hydroxyphenyl)quinazolin-4-yl)piperazin-1-yl) prop-2-en-1-one]", "values": [{"measurement": "Binding %", "setting": "compounds of structure (I)", "result": "+++ (+++ indicates binding activity greater than 90%)"}]}
{"smiles": "C=CC(=O)N1CCN(c2nc(NCCN(CC)CC)nc3c(F)c(-c4c(O)cccc4F)c(Cl)cc23)CC1", "note": "[Example I-151, l-(4-(6-chloro-2-(2-(diethyl-amino)ethylamino)-8-fluoro-7-(2-fluoro-6-hydroxyphenyl)quinazolin-4-yl)piperazin-1-yl) prop-2-en-1-one]", "values": [{"measurement": "Binding %", "setting": "compounds of structure (I)", "result": "+++ (+++ indicates binding activity greater than 90%)"}]}
{"smiles": "C=CC(=O)N1CCN(c2nc(OCCc3ccccn3)nc3c(F)c(-c4c(O)cccc4F)c(Cl)cc23)CC1", "note": "(atropisomer, axis not shown) [Example I-103, (S)-1-(4-(6-chloro-8-fluoro-7-(2-fluoro-6-hydroxyphenyl)-2-(2-(pyridin-2-yl)ethoxy)quinazolin-4-yl)piperazin-1-yl) prop-2-en-1-one]", "values": [{"measurement": "Binding %", "setting": "compounds of structure (I)", "result": "+++ (+++ indicates binding activity greater than 90%)"}]}
{"smiles": "C=CC(=O)N1CCN(c2ncnc3c(F)c(-c4c(O)cccc4F)c(Cl)cc23)CC1(C)C", "note": "[III-7, 1-(4-(6-chloro-8-fluoro-7-(2-fluoro-6-hydroxy-phenyl)quinazolin-4-yl)-2,2-dimethyl-piperazin-1-yl)prop-2-en-1-one]", "values": [{"measurement": "Binding %", "setting": "compounds of structure (III)", "result": "+ (+ indicates binding activity up to 50%)"}]}
{"smiles": "C=CC(=O)N1CCN(c2nc(OCC3CCN(C4CC4)CC3)nc3c(F)c(-c4c(C)ccc5[nH]ncc45)c(Cl)cc23)CC1", "note": "[Example I-203, 1-(4-(6-chloro-2-((1-cyclopropyl-piperidin-4-yl)methoxy)-8-fluoro-7-(5-methyl-1H-indazol-4-yl)quinazolin-4-yl)piperazin-1-yl) prop-2-en-1-one]", "values": [{"measurement": "Binding %", "setting": "compounds of structure (I)", "result": "++ (++ indicates binding activity from 50 to 90%)"}]}
{"smiles": "C=CC(=O)N1CCN(c2nc(OCC(=O)N(C)C)nc3c(F)c(-c4c(O)cccc4F)c(Cl)cc23)CC1", "note": "[Example I-8, 2-(4-(4-acryloyl-piperazin-1-yl)-6-chloro-8-fluoro-7-(2-fluoro-6-hydroxyphenyl)quinazolin-2-yloxy)-N,N-dimethyl-acetamide]", "values": [{"measurement": "Binding %", "setting": "compounds of structure (I)", "result": "+++ (+++ indicates binding activity greater than 90%)"}]}
{"smiles": "C=CC(=O)N1CCN(c2nc(NC3CCCN(C4CC4)C3)nc3c(F)c(-c4c(O)cccc4F)c(Cl)cc23)CC1", "note": "(stereo not shown) [Example I-120, 1-(4-(6-chloro-2-(1-cyclopropyl-piperidin-3-ylamino)-8-fluoro-7-(2-fluoro-6-hydroxyphenyl)quinazolin-4-yl)piperazin-1-yl) prop-2-en-1-one]", "values": [{"measurement": "Binding %", "setting": "compounds of structure (I)", "result": "++ (++ indicates binding activity from 50 to 90%)"}]}
{"smiles": "C=CC(=O)N1CCN(c2nc(OCCc3ccc(F)cn3)nc3c(F)c(-c4c(O)cccc4F)c(Cl)cc23)CC1", "note": "[Example I-100, 1-(4-(6-chloro-8-fluoro-7-(2-fluoro-6-hydroxyphenyl)-2-(2-(5-fluoro-pyridin-2-yl)ethoxy)quinazolin-4-yl)piperazin-1-yl) prop-2-en-1-one]", "values": [{"measurement": "Binding %", "setting": "compounds of structure (I)", "result": "+++ (+++ indicates binding activity greater than 90%)"}]}
{"smiles": "C=CC(=O)N1C[C@@H](C)N(c2ncnc3c(F)c(-c4c(C)ccc5[nH]ncc45)c(Cl)cc23)[C@@H](C)C1", "note": "[III-40, 1-((3S,5R)-4-(6-chloro-8-fluoro-7-(5-methyl-1H-indazol-4-yl)quinazolin-4-yl)-3,5-dimethyl-piperazin-1-yl)prop-2-en-1-one]", "values": [{"measurement": "Binding %", "setting": "compounds of structure (III)", "result": "++ (++ indicates activity from 50% to 90%)"}]}
{"smiles": "C=CC(=O)N1CCN(c2ncnc3c(F)c(-c4c(O)cccc4F)c(Cl)cc23)C(=O)C1", "note": "[III-38, 4-acryloyl-1-(6-chloro-8-fluoro-7-(2-fluoro-6-hydroxy-phenyl)quinazolin-4-yl) piperazin-2-one]", "values": [{"measurement": "Binding %", "setting": "compounds of structure (III)", "result": "++ (++ indicates activity from 50% to 90%)"}]}
